Measurements as given in patent US20140343001A1, “INDOLE DERIVATIVES INHIBITORS OF ENZYME LACTATE DEHYDROGENASE (LDH)” (Universitá di Pisa, priority 2011, published 2014).

Columns and labels:
[1] = test system: H1299; assay: Inhibition of tumor cell growth method (a), sulforhodamine B assay; type: cell-based; details: Homo sapiens, NCI-H1299; H1299, 72 hours, SRB
Experimental: (§1) The plates were incubated at 37° C. in an atmosphere composed of 95% air and 5% CO2 for 72 hours. The culture medium was then removed and the cells were fixed by addition of 50 μL of a 10% solution of trichloroacetic acid in water at 4° C. in each well. The plates were incubated at 4° C. for at least one hour, after which the colorimetric assay of sulforhodamine B (SRB) was carried out to determine the amount of biomass remaining in each well as described in previously developed methodologies [Vichai, V.; Kirtikara, K. Nat. Protoc. […] Briefly, the plates were washed several times with water and dried prior to the addition of 50 μL of a solution of dye sulforhodamine B (composed by 0.057% weight/weight of sulforhodamine B in 1% acetic acid) to each well. After 30 minutes of incubation, the unbound dye was removed by washing six times with 1% acetic acid. […] After an incubation period of 30 minutes, the absorbance in each well was read at a wavelength of 510 nm in a microplate reader. The cells treated only with vehicle consisting of a 1% solution of DMSO (vehicle) were used as control of 100% of live cells in the biomass and the wells incubated with the vehicle alone (without cells) were used to determine the baseline (0%) of live biomass. The IC50 values were calculated using the software SoftMax Pro (Molecular Devices, Sunnyvale, Calif.).

[2] = test system: H226; assay: as above; type: cell-based; details: Homo sapiens, NCI-H226; H226, 72 hours, SRB
Experimental: as §1

[3] = test system: HeLa; assay: as above; type: cell-based; details: Homo sapiens, 72 hours, SRB
Experimental: as §1

[4] = test system: IGROV-1; assay: as above; type: cell-based; details: Homo sapiens; IGROV-1, 72 hours, SRB
Experimental: as §1

[5] = test system: MCF-7; assay: as above; type: cell-based; details: Homo sapiens, MCF7; MCF-7, 72 hours, SRB
Experimental: as §1

[6] = test system: A549 cells; assay: Inhibition of tumor cell growth method (b), CellTiter-Glo; type: cell-based; details: Homo sapiens, A549, 72 h
Description: (§2) CellTiter-Glo® Luminescent Cell Viability Assay (Promega) is a homogeneous method of determining the number of viable cells in culture based on quantitation of the present ATP, which indicates the presence of metabolically active cells. The homogeneous assay procedure involves addition of a single reagent (CellTiter-Glo® Reagent) directly to the cells, which leads to cell lysis and generation of a luminescent signal proportional to the amount of the ATP and the number of cells present in culture. The assay relies on the properties of a proprietary thermostable luciferase (Ultra-Glo® recombinant luciferase), which generates a luminescent signal.
(§3) After 72 h, a volume of CellTiter-Glo® Reagent equal to the volume of cell culture medium was added. The content was mixed for 2 min to induce cell lysis. The luminescence was recorded after further 10 min at RT in order to obtain a stable luminescent signal.
(§4) The IC50 was calculated using GraphPad Software.

[7] = test system: H1975; assay: as above; type: cell-based; details: Homo sapiens, NCI-H1975, H1975, 72 h
Description: as §2, §3, §4

[8] = test system: HeLa cells; assay: Determination of cellular production of lactate (GC/MS); type: cell-based; details: 8 hours, concentrations from 50 to 200 μM, comparable or superior to 2-DeoxGlu at 10 mM
[9] = biological target: T1, hLDH5 (LDH-A) (Homo sapiens, UniProt P00338); assay: Enzyme inhibition of human lactate dehydrogenase isoform 5; type: biochemical; details: ranges of values, pH 7.4; for Ki: 37° C., read-out: inhibitory activity against hLDH5 (Ki)
T1 construct: purchased LEEBIO (USA)
Experimental: The compounds described in the examples were evaluated in enzymatic assays to assess its inhibitory properties against two human isoforms of lactate dehydrogenase, hLDH5 containing solely the subunit LDH-A (LEEBIO—USA), and the hLDH1 containing only the LDH subunits-B (Sigma Aldrich, USA), in order to verify the selectivity of these compounds.
(for Ki measurements). Such assays were conducted in cells containing 200 μL of a solution comprising the reagents dissolved in phosphate buffer (KH2PO4 and K2HPO4) at pH 7.4.
IC50 values were calculated as described below. […] Seven different concentrations (in duplicate for each concentration) of compound were used to generate a concentration-response curve. […] Compound solutions were dispensed in 96-well plates (8 μL), then substrate and cofactor dissolved in buffer (152 μl) and enzyme solution (40 μl) were finally added. Dilution of the enzyme stock solution was made to allow a 10% consumption of the cofactor after 15 min. The eventual background fluorescence of the tested compounds or quenching of the NADH fluorescence by the tested compounds was subtracted. In addition to the compound test wells, each plate contained maximum and minimum controls. Assay plates were incubated at room temperature for 15 min and the final measurements were performed using Victor X3 Microplates reader (PerkinElmer®) at a fluorescence emission wavelength of 460 nm (excitation at 340 nm). IC50 were generated using the curve-fitting tool of GraphPad Prism].
The resulting data of enzymatic kinetic (the constants of Michaelis-Menten) were determined by analysis of non-linear regression.

Row | Structure (SMILES) | IC50 [1] [µM] | IC50 [2] [µM] | IC50 [3] [µM] | IC50 [4] [µM] | IC50 [5] [µM] | IC50 [6] [µM] | IC50 [7] [µM] | Ki [9] [µM] | IC50 ([9]; room temperature, read-out: inhibitory activity against hLDH5 (IC50)) [µM] | reduction of cellular production of lactate [8]
1 | O=C(O)c1cc2c(C(F)(F)F)cc(-c3ccccc3)cc2n1O [1-hydroxy-6-phenyl-4-trifluoromethyl-1H-indol-2-carboxylic acid, reference compound] | 141 | 121 | 44 | 123 | 124 | 60 | 57 | – | – | –
2 | COC(=O)c1cc2c(C(F)(F)F)cc(-c3ccccc3)cc2n1O[C@@H]1O[C@H](CO)[C@@H](O)[C@H](O)[C@H]1O [Example 3, methyl 6-phenyl-1-(β-D-glucopyranosyl)oxy-4-(trifluoromethyl)-1H-indole-2-carboxylate] | < 40 | < 26 | < 17 | < 31 | < 35 | ≤ 31 | ≤ 31 | – | – | reduce effectively cellular production of lactate

More lines, main results first:

Row | IC50 [1] [µM] | IC50 [2] [µM] | IC50 [3] [µM] | IC50 [4] [µM] | IC50 [5] [µM] | IC50 [6] [µM] | IC50 [7] [µM] | Ki [9] [µM] | IC50 ([9]; room temperature, read-out: inhibitory activity against hLDH5 (IC50)) [µM] | Structure (SMILES) | reduction of cellular production of lactate [8]
3 | < 40 | < 26 | < 17 | < 31 | < 35 | ≤ 31 | ≤ 31 | 1 to 10 | – | CCOC(=O)c1cc2c(C(F)(F)F)cc(-c3ccccc3)cc2n1O [Example 1, ethyl 1-hydroxy-6-phenyl-4-(trifluoromethyl)-1H-indole-2-carboxylate] | reduce effectively cellular production of lactate
4 | – | – | < 15 | – | < 17 | ≤ 31 | ≤ 31 | 1 to 10 | – | COC(=O)c1cc2c(C(F)(F)F)cc(-c3ccc(Cl)cc3Cl)cc2n1O [Example 8, methyl 6-(2,4-dichlorophenyl)-1-hydroxy-4-(trifluoromethyl)-1H-indole-2-carboxylate] | reduce effectively cellular production of lactate
5 | – | – | < 15 | – | < 17 | – | – | – | 50 to 500 | COC(=O)c1cc2c(C(F)(F)F)cc(-c3ccc(Cl)cc3Cl)cc2n1O[C@@H]1O[C@H](CO)[C@@H](O)[C@H](O)[C@H]1O [Example 10, methyl 6-(2,4-dichlorophenyl)-1-(β-D-glucopyranosyl)oxy-4-(trifluoromethyl)-1H-indole-2-carboxylate] | –
